Data from PMC12155470, “Novel Tetraene Macrodiolides Are Effective Inducers of Mitochondrial Apoptosis in Jurkat Cells” (International Journal of Molecular Sciences, 2025).
Where two headings read alike, the source gives them in different places.

Experiments:
[1] = test system: Jurkat cells; assay: Cytochrome C assay (flow cytometry); type: cell-based, Human; details: compound at CC50 concentration, 6 h (Figure 4; method says four hours)
From the text: The quantification of cytochrome c release from the mitochondria in apoptotic cells was used to detect the mitochondrial pathway of apoptosis in the cells by flow cytometry. This study employed a direct labeling method that utilized an anti-cytochrome cFITC antibody, an anti-IgG1-FITC isotype control, and optimized fixation, permeabilization, and blocking buffers to detect cytochrome c by flow cytometry (Luminex®, Austin, TX, USA). […] The Jurkat cells were exposed to test substances at concentrations corresponding to their 24-h CC50 in these cells for a period of four hours. Thereafter, analysis by flow cytometry (NovoCyte Flow Cytometry™ Agilent, San Diego, CA, USA) was conducted. The acquired data were processed using NovoExpress® software (version 1.6.2) (ACEA (Agilent, Santa Clara, CA, USA)).
Figure 4 Detection of cytochrome c in Jurkat cells stained with a FlowCellect Cytochrome c Kit. The control compound, carbonyl cyanide m-chlorophenylhydrazone (CCCP), was administered at a concentration equal to its CC50 value. Compound 9d was added to the sample cells at a CC50 concentration (see the table of cell viability). The cells were incubated for 6 h. We compared the numerical values to determine the reliability of the differences observed between the control sample and the samples treated with the synthesized substances. […]

[2] = test system: HL60; assay: In vitro cytotoxic activity, 7-AAD flow cytometry, HL60; type: cell-based; details: Homo sapiens, HL-60, 24 h incubation, mean ± SD, triplicate
From the text: (§1) The investigation focused on the assessment of the synthesized compounds’ toxicities, utilizing a panel of six diverse cell lines. The selection of cells was based on the specific features of their metabolism, namely, Jurkat, K562, U937, and HL60 cells are suspension cultures of oncohematologic origin, and HEK293 is a conditionally normal line transformed by adenovirus and often used as control cells along with fibroblasts. The normal fibroblast line (Wi-38) utilized in the experiment was diploid and was obtained from the lung tissue of an aborted fetus. The total cytotoxic activity of 16 compounds was studied using flow cytometry.
(§2) Human cancer cell lines, including Jurkat, K562, U937, HL60, and fibroblasts (Wi-38), were obtained from the European Authentic Cell Culture Collection and further cultured according to established standard protocols using sterile methods. The cells were cultivated in RPMI 1640 (for Jurkat and K562) and DMEM (for Wi-38 and HEK293) media (Gibco, Billings, MT, USA), with the addition of […] glutamine, 10% FBS (Sigma, Kanagawa, Japan), and 100 U/mL penicillin–streptomycin (Sigma). All cell types were cultivated in a humidified atmosphere containing 5% CO₂ at a temperature of 37 °C. Subculturing was performed at two- to three-day intervals. The cells were subsequently seeded into 24-well plates at a density of 5 × 10^4 cells per well and incubated overnight. Subsequent subculturing was then performed at two-day intervals, with a seeding density of 1 × 10^5 cells per 24-well plate, using RPMI medium with 10% FBS [49].
(§3) The dissolution of the compounds tested was initially performed in dimethyl sulfoxide (DMSO) with an initial solution of 100 mM in 10% DMSO. Subsequently, the solution was diluted in a complete culture medium, namely, Dulbecco’s medium, modified Eagle’s medium (DMEM), or Roswell Park Memorial Institute medium (RPMI). Substances were added at concentrations of 10, 1, 100, 10, 1, and 0.1 μM on the day after seeding and incubated for 24 h. Following this, the cells were washed with a phosphate-buffered saline (PBS) solution and stained with 7AAD dye, as per the manufacturer’s protocol for flow cytometry. The CC50 value, which characterizes the parameters of toxicity (i.e., the concentration of the compound required for 50% inhibition of cell viability in vitro), was calculated. logC versus % inhibition was plotted, and statistical data processing was performed using Excel and GraphPad Prism v.8.0.2 (San Diego, CA, USA, 2019). The data obtained from three independent experiments were expressed as the mean of three measurements for each concentration, with the standard deviation indicated as well. These values were then relative to the control values (0.1% DMSO), which were taken as 100%.
(§4) 7-AAD (7-aminoactinomycin D) dye (eBioscience™, San Diego, CA, USA) was used to assess cell viability. Following incubation with the test compounds, the cells were harvested, washed with a phosphate–salt buffer (PBS), and subjected to centrifugation at 400× g for five minutes. The cell sediment was resuspended in 200 μL of staining buffer for flow cytometry (PBS without calcium and magnesium, 2.5% FBS) and stained with a 1 mM 7-AAD dye solution for 15 min in the dark at room temperature. Subsequently, all samples, including experimental and control groups, were analyzed using a BD FACSAria™ III Cell Sorter flow cytometer (Milpitas, CA, USA).

[3] = In vitro cytotoxic activity, 7-AAD flow cytometry, normal fibroblasts; type: cell-based; details: human, Wi-38 normal lung fibroblasts, normal fibroblasts Wi-38, 24 h incubation, mean ± SD, read-out: Fibrobl. (CC50)
From the text: as §1, §2, §3, §4

[4] = test system: U937; assay: In vitro cytotoxic activity, 7-AAD flow cytometry, U937; type: cell-based, Human; details: 24 h incubation, mean ± SD, triplicate
From the text: as §1, §2, §3, §4

[5] = test system: Jurkat; assay: In vitro cytotoxic activity, 7-AAD flow cytometry, Jurkat; type: cell-based, Human; details: Homo sapiens, Jurkat, 24 h, 24 h incubation, mean ± SD, triplicate
From the text: as §1, §2, §3, §4

[6] = test system: K562; assay: In vitro cytotoxic activity, 7-AAD flow cytometry, K562; type: cell-based, Human; details: Homo sapiens, K562, 24 h, 24 h incubation, mean ± SD, triplicate
From the text: as §1, §2, §3, §4

[7] = In vitro cytotoxic activity, 7-AAD flow cytometry, Hek293; type: cell-based; details: human, HEK293 cells, conditionally normal line, 24 h incubation, mean ± SD
From the text: as §1, §2, §3, §4

[8] = test system: Jurkat cells; assay: Mitodamage assay (MitoSense Red, Annexin V-CF488A, 7-AAD); type: cell-based, Human; details: compound at CC50 concentration, four hours, MitoSense Red
Description: To this end, MitoSense Red, a fluorescent dye that accumulates predominantly in mitochondria and responds to changes in membrane potential, was utilized. […] Two dyes commonly employed for detecting apoptosis in cells are annexin V and 7AAD. […] Therefore, the dissipation of mitochondrial membrane potential and the associated apoptosis process in Jurkat tumor cells were analyzed in response to exposure to synthesized macrodiolides. MitoSense Red, Annexin V-CF488A, and 7-AAD were used as dyes for this analysis (see Figure 3). A flow cytometry kit (FlowCellect™ MitoDamage Kit from Millipore, Hayward, CA USA) was utilized, as it facilitates a multiparametric evaluation of three markers of cell health. These markers include changes in mitochondrial potential (early apoptosis and cell stress), phosphatidylserine expression on the cell surface (late apoptosis), and membrane permeability (cell death). The method of the simultaneous detection of mitochondrial damage was performed according to the well-known technique.  Figure 3 Detection changes in mitochondrial membrane potential (ΔΨ) and coupled early and late apoptosis in Jurkat cells treated with compounds 9d, 8d, 7d, and 6d. Staurosporine and carbonyl cyanide-m-chlorophenylhydrazone were utilized as control compounds. The addition of all the tested compounds was executed at the CC50 concentration (refer to the provided table for the cytotoxicities of the synthesized compounds). The staining of cells was conducted using MitoSense Red, Annexin V-CF488A, and 7-AAD. The incubation period lasted for a duration of four hours. The presence of three *** (p < 0.001) and two asterisks ** (p < 0.005) indicates the significance of the observed differences between the values obtained in the control sample and the samples treated with the synthesized substances (comparison was performed by one-way ANOVA). All experiments were performed in triplicate.

[9] = test system: Jurkat, K562, U937, HEK293, and HeLa cell cultures; details: cited from earlier work

Compound | cells releasing cytochrome c into the cytoplasm (Cytochrome loss %) [1] | CC50 [2] | CC50 at 24 h [3] | CC50 ([4]; Homo sapiens, U-937, 24 h) | CC50 [5] | CC50 [6] | CC50 at 24 h [7] | Jurkat cells with reduced mitochondrial membrane potential (Δψ dissipation) [8] | CC50 [4] | CC50 ([9]; K562, HEK293, and HeLa) | CC50 ([9]; individual cell cultures Jurkat, U937)
N#CC(C#N)=NNc1cccc(Cl)c1 [CCCP, carbonyl cyanide-m-chlorophenylhydrazone, reference compound] | 79.35% |  |  |  |  |  |  |  |  |  | 
O=C1CC/C=C\CC/C=C\CCC(=O)OCCCCC/C=C\CC/C=C\CCCCCO1 [Compound 8a] |  | 21.8 ± 1.96 nM | 86.4 ± 7.11 nM | 23.4 ± 2.27 nM | 25.3 ± 2.63 nM | 22.3 ± 2.16 nM | 64.3 ± 5.37 nM |  |  |  | 
O=C1CCCC/C=C\CC/C=C\CCCCC(=O)OCCC/C=C\CC/C=C\CCCO1 [Compound 6c] |  | 20.1 ± 1.95 nM | 58.9 ± 5.81 nM | 19.2 ± 1.87 nM | 22.1 ± 2.14 nM | 19.7 ± 1.63 nM | 42.8 ± 4.39 nM |  |  |  | 
O=C1CCCC/C=C\CC/C=C\CCCCC(=O)OCCCCCC/C=C\CC/C=C\CCCCCCO1 [Compound 9c] |  | 12.8 ± 1.37 nM | 59.4 ± 5.29 nM | 13.1 ± 1.31 nM | 17.3 ± 1.59 nM | 14.7 ± 1.49 nM | 49.2 ± 4.77 nM |  |  |  | 
O=C1CCCC/C=C\CC/C=C\CCCCC(=O)OCCCCC/C=C\CC/C=C\CCCCCO1 [Compound 8c] |  | 14.7 ± 1.42 nM | 64.8 ± 6.35 nM | 15.5 ± 1.49 nM | 17.8 ± 1.73 nM | 16.9 ± 1.62 nM | 47.3 ± 4.22 nM |  |  |  | 
O=C1CCC/C=C\CC/C=C\CCCC(=O)OCCCC/C=C\CC/C=C\CCCCO1 [Compound 7b] |  | 18.2 ± 1.76 nM | 62.6 ± 5.94 nM | 17.4 ± 1.71 nM | 20.3 ± 2.04 nM | 18.1 ± 1.83 nM | 53.1 ± 4.96 nM |  |  |  | 
O=C1CCCCC/C=C\CC/C=C\CCCCCC(=O)OCCCCC/C=C\CC/C=C\CCCCCO1 [Compound 8d] |  | 11.1 ± 1.39 nM | 63.7 ± 6.07 nM | 12.2 nM | 16.1 ± 1.58 nM | 15.2 ± 1.46 nM | 51.1 ± 5.6 nM | 75.42% | 12.2 ± 1.37 nM |  | 
O=C1CC/C=C\CC/C=C\CCC(=O)OCCC/C=C\CC/C=C\CCCO1 [Compound 6a] |  | 19.8 ± 1.81 nM | 76.2 ± 7.62 nM | 23.1 ± 2.11 nM | 28.3 ± 2.65 nM | 24.8 ± 2.37 nM | 52.3 ± 5.17 nM |  |  |  | 
O=C1CCC/C=C\CC/C=C\CCCC(=O)OCCCCCC/C=C\CC/C=C\CCCCCCO1 [Compound 9b] |  | 15.6 ± 1.49 nM | 61.6 ± 5.92 nM | 15.7 ± 1.53 nM | 18.3 ± 2.04 nM | 17.3 ± 1.64 nM | 52 ± 5.43 nM |  |  |  | 
O=C1CC/C=C\CC/C=C\CCC(=O)OCCCCCC/C=C\CC/C=C\CCCCCCO1 [Compound 9a] |  | 20.2 ± 2.17 nM | 79.9 ± 6.9 nM | 19.8 ± 1.97 nM | 24.2 ± 2.39 nM | 20.4 ± 1.89 nM | 54.9 ± 5.37 nM |  |  |  | 
O=C1CCCCC/C=C\CC/C=C\CCCCCC(=O)OCCC/C=C\CC/C=C\CCCO1 [Compound 6d] |  | 15.7 ± 1.43 nM | 59.4 ± 5.46 nM | 15.2 ± 1.56 nM | 18.5 ± 1.78 nM | 16.9 ± 1.88 nM | 44.3 ± 4.21 nM | 58.99% |  |  | 
O=C1CCC/C=C\CC/C=C\CCCC(=O)OCCC/C=C\CC/C=C\CCCO1 [Compound 6b] |  | 20.4 ± 2.1 nM | 61.9 ± 6.27 nM | 22.4 ± 2.24 nM | 21.2 ± 1.97 nM | 21.5 ± 2.01 nM | 46.2 ± 3.75 nM |  |  |  | 
O=C1CCCC/C=C\CC/C=C\CCCCC(=O)OCCCC/C=C\CC/C=C\CCCCO1 [Compound 7c] |  | 15.3 ± 1.48 nM | 59.5 ± 5.37 nM | 17.3 ± 1.62 nM | 18.4 ± 1.86 nM | 16.7 ± 1.59 nM | 46.3 ± 3.99 nM |  |  |  | 
O=C1CCCCCC(=O)OCCCCCC/C=C\CC/C=C\CCCCCCO1 |  |  |  |  |  |  |  |  |  | 60 to 150 nM | 10 to 20 nM
O=C1CC/C=C\CC/C=C\CCC(=O)OCCCC/C=C\CC/C=C\CCCCO1 [Compound 7a] |  | 20.4 ± 2.07 nM | 67.2 ± 6.39 nM | 22.2 ± 2.34 nM | 26.4 ± 2.46 nM | 23.6 ± 2.14 nM | 49.9 ± 4.83 nM |  |  |  | 
O=C1CCC/C=C\CC/C=C\CCCC(=O)OCCCCC/C=C\CC/C=C\CCCCCO1 [Compound 8b] |  | 18.7 ± 1.71 nM | 67.2 ± 6.24 nM | 17.9 ± 1.83 nM | 21 ± 2.34 nM | 19.2 ± 1.79 nM | 48.2 ± 4.34 nM |  |  |  | 
O=C1CCCCC/C=C\CC/C=C\CCCCCC(=O)OCCCC/C=C\CC/C=C\CCCCO1 [Compound 7d] |  | 14.5 ± 1.57 nM | 60.2 ± 5.21 nM | 15.1 ± 1.43 nM | 18.1 ± 1.91 nM | 17.1 ± 1.84 nM | 48.6 ± 4.82 nM | 69.26% |  |  | 
